# Measurements reported in ChEMBL document CHEMBL5728996 (2022).
# Assays:
# Adenosine receptor A1 = target: T1, Adenosine receptor A1 (Homo sapiens, UniProt P30542); assay: (§1) Activity Assay: Compounds (Adenosine Receptor modulators) and activity assay.
# T1 sequence (P30542 whole entry): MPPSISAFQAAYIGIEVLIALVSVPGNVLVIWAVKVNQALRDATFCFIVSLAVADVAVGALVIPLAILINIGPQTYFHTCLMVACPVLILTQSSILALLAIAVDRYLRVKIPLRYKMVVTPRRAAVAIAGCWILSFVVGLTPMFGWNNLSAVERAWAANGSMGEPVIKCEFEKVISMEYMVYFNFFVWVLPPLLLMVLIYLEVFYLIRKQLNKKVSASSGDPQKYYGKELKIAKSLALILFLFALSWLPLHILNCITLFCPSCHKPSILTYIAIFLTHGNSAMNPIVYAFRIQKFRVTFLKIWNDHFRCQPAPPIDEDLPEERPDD
# Adenosine receptor A3 = target: T2, Adenosine receptor A3 (Homo sapiens, UniProt P0DMS8); assay: as §1
# T2 sequence (P0DMS8 whole entry): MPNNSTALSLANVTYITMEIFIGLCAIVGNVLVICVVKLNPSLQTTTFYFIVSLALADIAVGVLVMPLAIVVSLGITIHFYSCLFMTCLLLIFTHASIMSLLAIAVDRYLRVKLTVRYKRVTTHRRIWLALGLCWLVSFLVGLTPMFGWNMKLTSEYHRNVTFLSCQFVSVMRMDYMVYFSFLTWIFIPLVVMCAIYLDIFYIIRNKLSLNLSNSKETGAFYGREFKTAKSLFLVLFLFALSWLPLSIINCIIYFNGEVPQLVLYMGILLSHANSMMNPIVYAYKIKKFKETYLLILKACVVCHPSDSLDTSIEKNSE
# Adenosine receptor A2a = Adenosine receptor A2a (Homo sapiens, UniProt P29274); assay: as §1; assay type: single protein
# Adenosine receptor A2b = target: T3, Adenosine receptor A2b (Homo sapiens, UniProt P29275); assay: as §1
# T3 sequence (P29275 whole entry): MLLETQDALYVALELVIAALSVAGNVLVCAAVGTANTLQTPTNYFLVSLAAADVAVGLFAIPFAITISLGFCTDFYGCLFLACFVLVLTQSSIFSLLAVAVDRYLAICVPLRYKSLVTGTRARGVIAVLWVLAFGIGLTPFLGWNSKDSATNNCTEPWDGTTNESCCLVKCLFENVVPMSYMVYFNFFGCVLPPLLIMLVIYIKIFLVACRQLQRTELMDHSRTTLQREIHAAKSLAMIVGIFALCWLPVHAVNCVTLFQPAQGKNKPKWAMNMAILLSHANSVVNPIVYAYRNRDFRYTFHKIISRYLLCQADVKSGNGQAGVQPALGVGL
# Sequence of Adenosine receptor A2a (P29274 whole entry): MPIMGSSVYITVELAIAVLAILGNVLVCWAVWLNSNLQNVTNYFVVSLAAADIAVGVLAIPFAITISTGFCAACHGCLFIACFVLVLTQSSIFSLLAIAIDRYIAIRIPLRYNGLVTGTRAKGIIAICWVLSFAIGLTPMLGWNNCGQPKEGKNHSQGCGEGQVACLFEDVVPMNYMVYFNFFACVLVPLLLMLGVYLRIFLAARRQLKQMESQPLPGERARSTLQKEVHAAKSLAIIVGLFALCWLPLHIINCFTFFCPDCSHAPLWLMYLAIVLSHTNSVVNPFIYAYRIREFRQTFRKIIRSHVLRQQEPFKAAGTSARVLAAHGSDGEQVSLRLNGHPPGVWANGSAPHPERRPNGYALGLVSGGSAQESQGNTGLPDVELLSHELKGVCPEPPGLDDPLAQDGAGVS
SMILES,IC50 (Adenosine receptor A1) [nM],IC50 (Adenosine receptor A3) [nM],IC50 (Adenosine receptor A2a) [nM],IC50 (Adenosine receptor A2b) [nM]
C[C@H](Nc1nc(C(=O)N2CC[C@@H](S(C)(=O)=O)C2)c2sccc2n1)c1ccccn1,–,–,> 500,–
COCCN1CCC(CNC(=O)c2nc(N[C@@H](C)c3ccccn3)nc3ccsc23)CC1,–,–,> 500,> 500
CC(=O)Nc1ccc(CCNC(=O)c2nc(N[C@@H](C)c3cccnc3)nc3cc(C)sc23)cc1,> 500,–,> 500,–
C[C@H](Nc1nc(C(=O)N2CC(N)C2)c2sccc2n1)c1cncc(F)c1,> 500,> 500,> 500,–
C[C@H](Nc1nc(C(=O)N2CC[C@@H](NC(=O)OC(C)(C)C)C2)c2sccc2n1)c1ccccn1,> 500,> 500,–,–
C[C@H](Nc1nc(C(=O)N[C@H]2CC[C@@H](O)C2)c2sccc2n1)c1ccccn1,> 500,> 500,–,< 10

# More lines, now with the values ahead:
IC50 (Adenosine receptor A1) [nM],IC50 (Adenosine receptor A3) [nM],IC50 (Adenosine receptor A2a) [nM],IC50 (Adenosine receptor A2b) [nM],SMILES
> 500,> 500,> 500,–,CC(=O)Nc1ccc(CCNC(=O)c2nc(N[C@@H](C)c3cncc(F)c3)nc3ccsc23)cc1
> 500,> 500,–,< 10,O=C(c1nc(NCc2cncc(F)c2)nc2ccsc12)N1CCCC1
> 500,> 500,> 500,–,C[C@H](Nc1nc(C(=O)N2CC(CN)C2)c2sccc2n1)c1cncc(F)c1
–,–,–,< 10,C[C@H](Nc1nc(C(=O)NCCc2ccccc2O)c2sccc2n1)c1cncc(F)c1
> 500,> 500,–,–,C[C@H](Nc1nc(C(=O)NCCO)c2sccc2n1)c1cccnc1
> 500,> 500,–,–,COc1ccc(CNC(=O)c2nc(NCc3cncc(F)c3)nc3ccsc23)cn1
–,–,> 500,> 500,O=C(c1nc(NCc2ccc(F)cn2)nc2ccsc12)N1CC[C@H](O)C1
–,–,> 500,> 500,CC(C)(C)OC(=O)N1CCC[C@@H]1CNC(=O)c1nc(NCc2cncc(F)c2)nc2ccsc12
–,–,–,> 500,CCC(Nc1nc(C(=O)NCc2ccc(OC)nc2)c2sccc2n1)c1cccnc1 (configuration not stated)
